Measured values taken from patent US20070190523A1 (priority 2002, published 2007).
Read-outs that look alike come from different tables or passages of the source.

Assays:
[1] = biological target: recombinant HIV-1 protease (Human immunodeficiency virus type 1 group M subtype B, UniProt P04585); assay: biochemical; format: biochemical; details: read-out: Ki
[2] = system: wild-type HIV-1 strain IIIB; assay: microbe, parasite or virus in culture; format: cell-based; details: read-out: EC50
[3] = system: mutant HIV-1 with I84V/L90M mutations; format: cell-based
46I50V = assay: microbe, parasite or virus in culture; format: cell-based, HIV; details: MT-4, 46I50V; read-out: Cell-based assay (MT-4) EC50/nM 46I50V
WT = WT (Human immunodeficiency virus type 1 group M subtype B, UniProt P04585); assay: cell-based; set-up: species or system HIV
30N82I88D = assay: microbe, parasite or virus in culture; format: cell-based, HIV
48V54V82A = assay: microbe, parasite or virus in culture; format: cell-based, HIV; details: MT-4, 48V54V82A; read-out: Cell-based assay (MT-4) EC50/nM 48V54V82A
84V90M [4] = biological target: T1, 84V90M (Human immunodeficiency virus type 1 group M subtype B, UniProt P04585, I572V/L578M); assay: biochemical; format: biochemical, HIV; details: Enzymatic assay, 84V90M; read-out: 84V90M IC50/nM
84V90M [5] = biological target: T1, 84V90M; assay: cell-based; set-up: species or system HIV
[6] = system: recombinant HIV-1 48V/54V/71V/82S; assay: Cross-Resistance Profile Assay; format: cell-based
[7] = system: recombinant HIV-1 10I/48V/54V/82A; assay: Cross-Resistance Profile Assay; format: cell-based
[8] = system: recombinant HIV-1 10R/46I/82T/84V; assay: Cross-Resistance Profile Assay; format: cell-based
[9] = system: recombinant HIV-1 46I/47V/50V; assay: Cross-Resistance Profile Assay; format: cell-based
[10] = system: recombinant HIV-1 10F/46I/71V/82T/90M; assay: Cross-Resistance Profile Assay; format: cell-based
[11] = system: recombinant HIV-1 10I/48V/71V/82A/90M; assay: Cross-Resistance Profile Assay; format: cell-based
[12] = system: recombinant HIV-1 strains with resistance mutations in the protease gene; assay: Cross-Resistance Profile Assay, whole panel; format: cell-based
[13] = system: recombinant HIV-1 30N/50S/82I/88D; assay: Cross-Resistance Profile Assay; format: cell-based
[14] = system: recombinant HIV-1 54V/71V/82S; assay: Cross-Resistance Profile Assay; format: cell-based
[15] = system: recombinant HIV-1 46I/84A; assay: Cross-Resistance Profile Assay; format: cell-based
84V90M [16] = biological target: T1, 84V90M; assay: Cell-based assay (MT-4) EC50, 84V90M; set-up: species or system HIV-1
[17] = system: recombinant HIV-1 10I/84V/71V/73S/90M; assay: Cross-Resistance Profile Assay; format: cell-based

## CCOC(=O)C(C)OP(=O)(Cc1ccc(N(C)CC(NC(=O)OC2COC3OCCC23)C(O)CN(CC(C)C)S(=O)(=O)c2ccc(OC)cc2)cc1)Oc1ccccc1 (centres unmarked)
[1]
  Ki: 0.01 to 0.1 nM
[2]
  EC50: 500 to 5000 nM
[3]; I84V/L90M mutant
  I84V/L90M fold change: +++ (>30)

## CCOP(=O)(COCCCN1C(=O)N(Cc2ccc3[nH]nc(N)c3c2)C(Cc2ccccc2)C(O)C(O)C1Cc1ccccc1)OCC (centres unmarked) [OCH2PO3Et2]
46I50V
  EC50: 138 nM
WT; MT-4, WT, read-out: Cell-based assay (MT-4) EC50/nM WT
  EC50: 356 nM
30N82I88D; MT-4, 30N82I88D, read-out: Cell-based assay (MT-4) EC50/nM 30N82I88D
  EC50: 145 nM
48V54V82A
  EC50: 175 nM

## Nc1n[nH]c2ccc(CN3C(=O)N(Cc4cccc(OCc5ccccc5)c4)C(Cc4ccccc4)C(O)C(O)C3Cc3ccccc3)cc12 (centres unmarked) [m-OBn]
84V90M [4]
  IC50: 27 nM
84V90M [5]; MT-4, 84V90M, read-out: Cell-based assay (MT-4) EC50/nM 84V90M
  EC50: 2420 nM
WT
  EC50: 218 nM

## CCC[C@@]1(CCc2ccccc2)CC(O)=C([C@H](CC)c2cccc(NS(=O)(=O)c3ccc(C(F)(F)F)cn3)c2)C(=O)O1 [Tipranavir]
[6]
  Fold Change in EC50 Relative to WT HIV-1: 2 fold
[7]
  Fold Change in EC50 Relative to WT HIV-1: 0.4 fold
[8]
  Fold Change in EC50 Relative to WT HIV-1: 5 fold
[3]; fold difference in EC50 vs wild type, class symbols
  I84V/L90M fold change: + (>3 to ≦10)
[9]
  Fold Change in EC50 Relative to WT HIV-1: 0.5 fold
[10]
  Fold Change in EC50 Relative to WT HIV-1: 3 fold
[11]
  Fold Change in EC50 Relative to WT HIV-1: 0.3 fold
[12]; {}
  Total No. of Resistant Viruses: 1
[13]
  Fold Change in EC50 Relative to WT HIV-1: 0.5 fold
[14]
  Fold Change in EC50 Relative to WT HIV-1: 3.5 fold
[15]
  Fold Change in EC50 Relative to WT HIV-1: 1 fold

## CCOP(=O)(CCNC(=O)Oc1ccc(CC2C(O)C(O)C(Cc3ccc(OC)cc3)N(Cc3ccc(O)cc3)C(=O)N2Cc2ccc(O)cc2)cc1)OCC (centres unmarked) [OCH3 / Ph-pOH / OCONH(CH2)2PO3Et2]
84V90M [16]
  EC50: 495 nM

## Cc1cccc(C)c1OCC(=O)N[C@@H](Cc1ccccc1)[C@@H](O)C[C@H](Cc1ccccc1)NC(=O)[C@H](C(C)C)N1CCCNC1=O [Lopinavir]
[6]
  Fold Change in EC50 Relative to WT HIV-1: 60 fold
[8]
  Fold Change in EC50 Relative to WT HIV-1: 11 fold
[9]
  Fold Change in EC50 Relative to WT HIV-1: 19 fold
[10]
  Fold Change in EC50 Relative to WT HIV-1: 7.5 fold
[11]
  Fold Change in EC50 Relative to WT HIV-1: 4.5 fold
[12]; {}
  Total No. of Resistant Viruses: 6
[17]
  Fold Change in EC50 Relative to WT HIV-1: 11 fold
[15]
  Fold Change in EC50 Relative to WT HIV-1: 9 fold

## Nc1n[nH]c2ccc(CN3C(=O)N(Cc4ccc(OCc5ccccc5)cc4)C(Cc4ccccc4)C(O)C(O)C3Cc3ccccc3)cc12 (centres unmarked) [p-OBn]
84V90M [4]
  IC50: 781 nM
84V90M [5]
  EC50: 5310 nM
WT
  EC50: 2120 nM
30N82I88D; Human immunodeficiency virus 1, read-out: Cell-based assay (MT-4) EC50/nM 30N82I88D
  EC50: 1550 nM

## CCCCOC(=O)C(C)NP(=O)(COc1ccc(CC(NC(=O)OC2COC3OCCC23)C(O)CN(CC(C)C)S(=O)(=O)c2ccc(OC)cc2)cc1)NC(C)C(=O)OCCCC (centres unmarked) [GS-16503]
[12]; resistance = 5-fold and higher change in EC50 relative to wild type, 11 mutant viruses
  Total No. of Resistant Viruses: 0
MT-2 cells
  increase of conversion to acid metabolites at 1 μM vs. 10 μM: 3 fold

## Cc1cccc(C)c1OCC(=O)N[C@@H](Cc1ccc(OCP(=O)(Oc2ccccc2)Oc2ccccc2)cc1)[C@H](O)CN(CC(C)C)S(=O)(=O)c1ccc(N)cc1
[1]
  Ki: 0.01 to 0.1 nM

## O=C1N(Cc2ccccc2)C(Cc2ccccc2)C(O)C(O)C(Cc2ccc(OCP(=O)(OCc3ccccc3)OCc3ccccc3)cc2)N1Cc1ccccc1 (centres unmarked)
84V90M [16]
  EC50: > 6000 nM
